Reference: ChEMBL document CHEMBL1144624, “1,2,3-Triazolylalkylribitol derivatives as nucleoside hydrolase inhibitors” (Bioorg Med Chem Lett, 2007)

Target: T1, IAG-nucleoside hydrolase (Trypanosoma vivax, UniProt Q9GPQ4)
T1 sequence (Q9GPQ4 whole entry): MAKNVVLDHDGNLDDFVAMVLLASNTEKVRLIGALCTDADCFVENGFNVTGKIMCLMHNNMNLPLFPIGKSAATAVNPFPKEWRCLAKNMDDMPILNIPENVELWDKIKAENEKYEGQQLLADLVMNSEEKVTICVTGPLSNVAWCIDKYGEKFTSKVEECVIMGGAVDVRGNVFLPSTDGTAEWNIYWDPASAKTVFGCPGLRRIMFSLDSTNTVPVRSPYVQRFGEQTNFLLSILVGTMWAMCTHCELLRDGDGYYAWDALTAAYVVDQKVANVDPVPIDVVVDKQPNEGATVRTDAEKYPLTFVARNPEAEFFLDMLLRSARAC
Assay: Inhibition of Trypanosoma vivax IAG-nucleoside hydrolase

Ki [µM] | SMILES
680 | OC[C@H]1O[C@@H](CCn2nncc2-c2ccccc2)[C@H](O)[C@@H]1O
23 | OC[C@H]1O[C@@H](CCn2cc(-c3ccccn3)nn2)[C@H](O)[C@@H]1O
21 | OC[C@H]1O[C@@H](CCn2cc(-c3ccccc3)nn2)[C@H](O)[C@@H]1O

Continued, molecule first:

SMILES | Ki [µM]
Cc1c(-c2ccccc2)nnn1CC[C@@H]1O[C@H](CO)[C@@H](O)[C@H]1O | 2.3
Cc1nnn(CC[C@@H]2O[C@H](CO)[C@@H](O)[C@H]2O)c1-c1ccccc1 | 32
Cc1nnn(C[C@@H]2O[C@H](CO)[C@@H](O)[C@H]2O)c1-c1ccccc1 | 520
CCc1nnn(CC[C@@H]2O[C@H](CO)[C@@H](O)[C@H]2O)c1CC | 63
Cc1c(-c2ccccc2)nnn1C[C@@H]1O[C@H](CO)[C@@H](O)[C@H]1O | 87
[N-]=[N+]=NCC[C@@H]1O[C@H](CO)[C@@H](O)[C@H]1O | 5600
